Among the data in patent US12479840B2, “HMG-CoA reductase degradation inducing compound” (Uppthera, priority 2020, dated 2025) are DC50 values, retold here.

The test addresses T1, HMG-CoA reductase (Homo sapiens, UniProt P04035).
T1 construct: endogenous in cells; host or cells: HepG2 (Korea Cell Line Bank)
T1 sequence (P04035 1-888): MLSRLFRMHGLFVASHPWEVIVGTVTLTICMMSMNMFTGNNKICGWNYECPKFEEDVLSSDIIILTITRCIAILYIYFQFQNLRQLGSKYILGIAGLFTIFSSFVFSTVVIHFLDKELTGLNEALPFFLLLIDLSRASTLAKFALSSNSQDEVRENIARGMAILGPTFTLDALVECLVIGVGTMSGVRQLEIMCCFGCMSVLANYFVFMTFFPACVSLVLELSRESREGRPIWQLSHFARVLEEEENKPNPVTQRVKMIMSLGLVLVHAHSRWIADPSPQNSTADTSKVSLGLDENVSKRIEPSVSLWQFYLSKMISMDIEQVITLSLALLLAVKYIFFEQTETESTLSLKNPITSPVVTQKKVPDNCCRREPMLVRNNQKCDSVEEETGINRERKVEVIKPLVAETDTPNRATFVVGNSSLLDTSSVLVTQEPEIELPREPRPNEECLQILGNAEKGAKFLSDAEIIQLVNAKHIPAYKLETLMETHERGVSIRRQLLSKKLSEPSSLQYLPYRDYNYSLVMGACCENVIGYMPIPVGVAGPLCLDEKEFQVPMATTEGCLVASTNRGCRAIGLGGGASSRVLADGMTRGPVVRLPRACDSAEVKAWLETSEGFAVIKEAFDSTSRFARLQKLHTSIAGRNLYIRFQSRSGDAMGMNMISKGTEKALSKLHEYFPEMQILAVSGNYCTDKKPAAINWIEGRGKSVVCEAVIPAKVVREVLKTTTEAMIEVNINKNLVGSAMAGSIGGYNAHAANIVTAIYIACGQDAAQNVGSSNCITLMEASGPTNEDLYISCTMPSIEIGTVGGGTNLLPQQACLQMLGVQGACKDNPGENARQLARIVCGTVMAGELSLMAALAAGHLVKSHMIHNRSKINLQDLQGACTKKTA
Kind of test: HMG-CoA reductase (HMGCR) degradation in HepG2 cells by western blotting. The test is classed as cell-based. The following applies: treated for 18 hours, ratio of HMG-CoA reductase to GAPDH, read-out: DC50. As to the method: HepG2, a human liver cancer cell line, was purchased from the Korea Cell Line Bank (KCLB), Seoul, Korea. The passage in cell culture was maintained at P105 to P110.
The compounds of the present invention were completely dissolved in DMSO and used in the experiment. 2×10^5 cells were seeded for each well of a 12-well plate (SPL), and the cells were cultured in the culture medium in a total volume of 2 ml. Each of the compounds of the present invention and comparative compounds was diluted three folds from the highest concentration of 3 μM to the lowest concentration in 10 points and treated for 18 hours.
Each of the compounds the present invention and comparative compounds was diluted three folds from the highest concentration of 3 μM to the lowest concentration of […] in 10 points and was treated for 18 hours.
For SDS-PAGE and Western blotting, 1×RIPA lysis buffer (Rockland, Cat. No. MB-030-0050; Lot no. 39751), 100× Protease Inhibitor Cocktail (Quartett, Cat. No. PPI1015; Lot no. PCO50038424), Pierce™ BCA protein assay kit (ThermoScientific, Cat. No. 23225; Lot no. UC276876), albumin standard (ThermoScientific, Cat. No. 23209; Lot no. UB269561), 4-15% Mini-PROTEAN TGX stain-free gel (Bio-rad, Cat. No. 4568085; Lot no. L007041B), 10× Tris/Glycine/SDS buffer (Bio-rad, Cat. No. 1610732; Lot no. 10000044375B); 10×TBS (Bio-rad, Cat. No. 1706435; Lot no. 1000045140B), 10% Tween 20 (Cat. No. 1610781; Lot no. L004152B), Color protein standard broad range (NEB, Cat. No. P7719S; Lot no. 10040349), 4× Laemmli sample buffer (Bio-rad, Cat. No. 1610747; Lot no. L004133B), β-mercaptoethanol (Sigma-Aldrich, Cat. No. M3148; Lot no. 60-24-2), SuperBlock™ T20 (TBS) blocking buffer (ThermoScientific, Cat. No. 37536; Lot no. UC282578), 1M sodium azide solution (Sigma-Aldrich, Cat. No. 08591-1 mL-F; Lot no. BCBV4989), α-Rabbit pAb to Ms IgG (abcam, Cat. No. ab97046; Lot no. GR3252115-1), α-Goat pAb to Rb IgG (CST, Cat. No. 7074S; Lot no. 28), α-GAPDH (abcam, Cat. No. ab8245), α-HMGCR (GeneTex, Cat. No. GTX54088; Lot no. 821903509), ECL™ Prime western blotting reagents (GE Healthcare, Cat. No. RPN2232; Lot no. 17001655), Ponceau S solution (Sigma-Aldrich, Cat. No. P7170; Lot no. SLBV4112), Difco™ Skim milk (BD, Cat. No. 232100; Lot no. 8346795), and iBlot® 2 NC Regular stacks (Invitrogen, Cat. No. IB23001; Lot no. 2NR110619-02), were used.
For cell harvesting, the cells were first separated from the plate using trypsin and then washed with the medium and PBS. Specifically, the medium was suctioned off and washed with 1 mL of PBS, and PBS was suctioned off. The cells were treated with 0.5 mL TrypLE™ Express at 37° C. for 7 minutes to separate the cells, and then 0.5 mL of complete medium was added to collect 1 mL of cell culture solution. Then, 1 mL of the cell collection solution was centrifuged at 8,000 rpm for 120 seconds, and the supernatant was removed. After washing with 0.2 mL of PBS, the PBS was removed.
For cell lysis, a lysis buffer was added and cell debris was removed to obtain a cell lysate. Specifically, the cells were treated with 70 μL of 1×RIPA buffer containing a protease inhibitor and incubated for 30 minutes on ice. Then, the cells were centrifuged at 4° C. and 15,000 rpm for 10 minutes to obtain a cell lysate.
Then, a standard curve was obtained using the BCA assay, and the protein mass in the lysate was quantified by substituting the curve. The mixture was incubated at 37° C. for 30 minutes using 20 μL of standard or sample solution, and 200 μL of BCA or Bradford solution, and measured at 562 nm absorbance. Samples were prepared by adding 4× sample buffer so that the quantity of protein added to each well was 15 μg.
Sodium dodecyl sulfate polyacrylamide gel electrophoresis (SDS-PAGE) was performed by setting a running time of 100 minutes at 120 V on a 4-15% Mini-PROTEAN TGX stain-free gel (15 well). Transferring was performed on iBlot® 2 NC Mini stacks at P0 mode of the dry blotting system. […]
Turning to `Cc1ncsc1-c1ccc(CNC(=O)[C@@H]2C[C@@H](O)CN2C(=O)[C@@H](NC(=O)COCCOCCOCCOCCNC(=O)O[C@H]2C[C@@H](C)C=C3C=C[C@H](C)[C@H](CC[C@@H]4C[C@@H](O)CC(=O)O4)[C@H]32)C(C)(C)C)cc1` [Compound 17, (1S,3R,7S,8S,8aR)-8-(2-((2R,4R)-4-hydroxy-6-oxotetrahydro-2H-pyran-2-yl)ethyl)-3,7-dimethyl-1,2,3,7,8,8a-hexahydronaphthalen-1-yl ((S)-16-((2S,4R)-4-hydroxy-2-((4-(4-methylthiazol-5-yl)benzyl)carbamoyl)pyrrolidine-1-carbonyl)-17,17-dimethyl-14-oxo-3,6,9,12-tetraoxa-15-azaoctadecyl)carbamate], the half-maximal degradation concentration (DC50) (usually the concentration at which degradation of the target reaches its halfway point) is < 0.05 µM.
Consider `Cc1ncsc1-c1ccc(CNC(=O)[C@@H]2C[C@@H](O)CN2C(=O)[C@@H](NC(=O)COCCOCCOCCOCCOCCNC(=O)O[C@H]2C[C@@H](C)C=C3C=C[C@H](C)[C@H](CC[C@@H]4C[C@@H](O)CC(=O)O4)[C@H]32)C(C)(C)C)cc1` [Compound 18, (1S,3R,7S,8S,8aR)-8-(2-((2R,4R)-4-hydroxy-6-oxotetrahydro-2H-pyran-2-yl)ethyl)-3,7-dimethyl-1,2,3,7,8,8a-hexahydronaphthalen-1-yl ((S)-19-((2S,4R)-4-hydroxy-2-((4-(4-methylthiazol-5-yl)benzyl)carbamoyl)pyrrolidine-1-carbonyl)-20,20-dimethyl-17-oxo-3,6,9,12,15-pentaoxa-18-azahenicosyl)carbamate], for which the DC50 was < 0.05 µM.
Regarding `Cc1ncsc1-c1ccc(CNC(=O)[C@@H]2C[C@@H](O)CN2C(=O)[C@@H](NC(=O)COCCOCCNC(=O)O[C@H]2C[C@@H](C)C=C3C=C[C@H](C)[C@H](CC[C@@H]4C[C@@H](O[Si](C)(C)C(C)(C)C)CC(=O)O4)[C@H]32)C(C)(C)C)cc1` [Compound 19, (1S,3R,7S,8S,8aR)-8-(2-((2R,4R)-4-((tert-butyldimethylsilyl)oxy)-6-oxotetrahydro-2H-pyran-2-yl)ethyl)-3,7-dimethyl-1,2,3,7,8,8a-hexahydronaphthalen-1-yl (2-(2-(2-(((S)-1-((2S,4R)-4-hydroxy-2-((4-(4-methylthiazol-5-yl)benzyl)carbamoyl)pyrrolidin-1-yl)-3,3-dimethyl-1-oxobutan-2-yl)amino)-2-oxoethoxy)ethoxy)ethyl)carbamate], the 50% degradation concentration (DC50) is < 0.05 µM.
Then `Cc1ncsc1-c1ccc(CNC(=O)[C@@H]2C[C@@H](O)CN2C(=O)[C@@H](NC(=O)COCCOCCOCCNC(=O)O[C@H]2C[C@@H](C)C=C3C=C[C@H](C)[C@H](CC[C@@H]4C[C@@H](O[Si](C)(C)C(C)(C)C)CC(=O)O4)[C@H]32)C(C)(C)C)cc1` [Compound 20, (1S,3R,7S,8S,8aR)-8-(2-((2R,4R)-4-((tert-butyldimethylsilyl)oxy)-6-oxotetrahydro-2H-pyran-2-yl)ethyl)-3,7-dimethyl-1,2,3,7,8,8a-hexahydronaphthalen-1-yl ((S)-13-((2S,4R)-4-hydroxy-2-((4-(4-methylthiazol-5-yl)benzyl)carbamoyl)pyrrolidine-1-carbonyl)-14,14-dimethyl-11-oxo-3,6,9-trioxa-12-azapentadecyl)carbamate], with < 0.05 µM; and `Cc1ncsc1-c1ccc(CNC(=O)[C@@H]2C[C@@H](O)CN2C(=O)[C@@H](NC(=O)COCCOCCOCCOCCNC(=O)O[C@H]2C[C@@H](C)C=C3C=C[C@H](C)[C@H](CC[C@@H]4C[C@@H](O[Si](C)(C)C(C)(C)C)CC(=O)O4)[C@H]32)C(C)(C)C)cc1` [Compound 21, (1S,3R,7S,8S,8aR)-8-(2-((2R,4R)-4-((tert-butyldimethylsilyl)oxy)-6-oxotetrahydro-2H-pyran-2-yl)ethyl)-3,7-dimethyl-1,2,3,7,8,8a-hexahydronaphthalen-1-yl ((S)-16-((2S,4R)-4-hydroxy-2-((4-(4-methylthiazol-5-yl)benzyl)carbamoyl)pyrrolidine-1-carbonyl)-17,17-dimethyl-14-oxo-3,6,9,12-tetraoxa-15-azaoctadecyl)carbamate], with < 0.05 µM; and `Cc1ncsc1-c1ccc(CNC(=O)[C@@H]2C[C@@H](O)CN2C(=O)[C@@H](NC(=O)COCCOCCOCCOCCOCCNC(=O)O[C@H]2C[C@@H](C)C=C3C=C[C@H](C)[C@H](CC[C@@H]4C[C@@H](O[Si](C)(C)C(C)(C)C)CC(=O)O4)[C@H]32)C(C)(C)C)cc1` [Compound 22, (1S,3R,7S,8S,8aR)-8-(2-((2R,4R)-4-((tert-butyldimethylsilyl)oxy)-6-oxotetrahydro-2H-pyran-2-yl)ethyl)-3,7-dimethyl-1,2,3,7,8,8a-hexahydronaphthalen-1-yl ((S)-19-((2S,4R)-4-hydroxy-2-((4-(4-methylthiazol-5-yl)benzyl)carbamoyl)pyrrolidine-1-carbonyl)-20,20-dimethyl-17-oxo-3,6,9,12,15-pentaoxa-18-azahenicosyl)carbamate], with < 0.05 µM.
For `Cc1ncsc1-c1ccc(CNC(=O)[C@@H]2C[C@@H](O)CN2C(=O)[C@@H](NC(=O)C2(F)CC2)C(C)(C)C)c(OCCOCCNC(=O)O[C@H]2C[C@@H](C)C=C3C=C[C@H](C)[C@H](CC[C@@H]4C[C@@H](O)CC(=O)O4)[C@H]32)c1` [Compound 23, (1S,3R,7S,8S,8aR)-8-(2-((2R,4R)-4-hydroxy-6-oxotetrahydro-2H-pyran-2-yl)ethyl)-3,7-dimethyl-1,2,3,7,8,8a-hexahydronaphthalen-1-yl (2-(2-(2-(((2S,4R)-1-((S)-2-(1-fluorocyclopropane-1-carboxamido)-3,3-dimethylbutanoyl)-4-hydroxypyrrolidine-2-carboxamido)methyl)-5-(4-methylthiazol-5-yl)phenoxy)ethoxy)ethyl)carbamate], the 50% degradation concentration (DC50) is < 0.05 µM.
